{"source": "ChEMBL document CHEMBL1155237", "about": "“Selective inhibitors of the mutant B-Raf pathway: discovery of a potent and orally bioavailable aminoisoquinoline” (J Med Chem, 2009)", "key": {"[1]": {"molecular_target": "Bone morphogenetic protein receptor type-1B (Homo sapiens) (UniProt O00238)", "experiment": "Inhibition of BMPR1B assessed as enzyme activity at 1 uM relative to untreated control", "design": "scale not given: the % may be the effect or the level left"}, "[2]": {"experiment": "Inhibition of FGFR3 G697C mutant assessed as enzyme activity at 1 uM relative to untreated control", "design": "scale not given: the % may be the effect or the level left"}, "[3]": {"molecular_target": "Cyclin-dependent kinase 15 (Homo sapiens) (UniProt Q96Q40)", "experiment": "Inhibition of PFTAIRE2 assessed as enzyme activity at 1 uM relative to untreated control", "design": "scale not given: the % may be the effect or the level left"}, "[4]": {"molecular_target": "Myosin light chain kinase family member 4 (Homo sapiens) (UniProt Q86YV6)", "sequence (Q86YV6 whole entry)": "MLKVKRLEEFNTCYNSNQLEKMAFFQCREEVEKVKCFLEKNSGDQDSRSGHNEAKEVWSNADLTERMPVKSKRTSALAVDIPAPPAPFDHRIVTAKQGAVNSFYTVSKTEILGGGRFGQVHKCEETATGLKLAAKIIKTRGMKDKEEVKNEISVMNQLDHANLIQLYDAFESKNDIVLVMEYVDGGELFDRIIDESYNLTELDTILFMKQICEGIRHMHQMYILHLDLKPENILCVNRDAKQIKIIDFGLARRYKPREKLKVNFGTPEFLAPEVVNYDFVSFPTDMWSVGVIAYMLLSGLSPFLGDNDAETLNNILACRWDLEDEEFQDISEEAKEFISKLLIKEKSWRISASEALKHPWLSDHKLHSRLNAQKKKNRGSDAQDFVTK", "experiment": "Inhibition of SgK085 assessed as enzyme activity at 1 uM relative to untreated control", "design": "scale not given: the % may be the effect or the level left"}, "[5]": {"molecular_target": "Mitogen-activated protein kinase kinase kinase 7 (Homo sapiens) (UniProt O43318)", "experiment": "Inhibition of TAK1 assessed as enzyme activity at 1 uM relative to untreated control", "design": "scale not given: the % may be the effect or the level left"}, "[6]": {"molecular_target": "Serine/threonine-protein kinase PLK4 (Homo sapiens) (UniProt O00444)", "experiment": "Inhibition of PLK4 assessed as enzyme activity at 1 uM relative to untreated control", "design": "scale not given: the % may be the effect or the level left"}, "[7]": {"molecular_target": "Serine/threonine-protein kinase Nek5 (Homo sapiens) (UniProt Q6P3R8)", "experiment": "Inhibition of NEK5 assessed as enzyme activity at 1 uM relative to untreated control", "design": "scale not given: the % may be the effect or the level left"}, "[8]": {"molecular_target": "Ribosomal protein S6 kinase alpha-6 (Homo sapiens) (UniProt Q9UK32)", "experiment": "Inhibition of RPS6KA6 kinase domain 1 assessed as enzyme activity at 1 uM relative to untreated control", "design": "scale not given: the % may be the effect or the level left"}, "[9]": {"molecular_target": "Dual specificity mitogen-activated protein kinase kinase 2 (Homo sapiens) (UniProt P36507)", "experiment": "Inhibition of MEK2 assessed as enzyme activity at 1 uM relative to untreated control", "design": "scale not given: the % may be the effect or the level left"}, "[10]": {"molecular_target": "Vascular endothelial growth factor receptor 1 (Homo sapiens) (UniProt P17948)", "experiment": "Inhibition of FLT1 assessed as enzyme activity at 1 uM relative to untreated control", "design": "scale not given: the % may be the effect or the level left"}, "[11]": {"molecular_target": "Serine/threonine-protein kinase D3 (Homo sapiens) (UniProt O94806)", "sequence (O94806 whole entry)": "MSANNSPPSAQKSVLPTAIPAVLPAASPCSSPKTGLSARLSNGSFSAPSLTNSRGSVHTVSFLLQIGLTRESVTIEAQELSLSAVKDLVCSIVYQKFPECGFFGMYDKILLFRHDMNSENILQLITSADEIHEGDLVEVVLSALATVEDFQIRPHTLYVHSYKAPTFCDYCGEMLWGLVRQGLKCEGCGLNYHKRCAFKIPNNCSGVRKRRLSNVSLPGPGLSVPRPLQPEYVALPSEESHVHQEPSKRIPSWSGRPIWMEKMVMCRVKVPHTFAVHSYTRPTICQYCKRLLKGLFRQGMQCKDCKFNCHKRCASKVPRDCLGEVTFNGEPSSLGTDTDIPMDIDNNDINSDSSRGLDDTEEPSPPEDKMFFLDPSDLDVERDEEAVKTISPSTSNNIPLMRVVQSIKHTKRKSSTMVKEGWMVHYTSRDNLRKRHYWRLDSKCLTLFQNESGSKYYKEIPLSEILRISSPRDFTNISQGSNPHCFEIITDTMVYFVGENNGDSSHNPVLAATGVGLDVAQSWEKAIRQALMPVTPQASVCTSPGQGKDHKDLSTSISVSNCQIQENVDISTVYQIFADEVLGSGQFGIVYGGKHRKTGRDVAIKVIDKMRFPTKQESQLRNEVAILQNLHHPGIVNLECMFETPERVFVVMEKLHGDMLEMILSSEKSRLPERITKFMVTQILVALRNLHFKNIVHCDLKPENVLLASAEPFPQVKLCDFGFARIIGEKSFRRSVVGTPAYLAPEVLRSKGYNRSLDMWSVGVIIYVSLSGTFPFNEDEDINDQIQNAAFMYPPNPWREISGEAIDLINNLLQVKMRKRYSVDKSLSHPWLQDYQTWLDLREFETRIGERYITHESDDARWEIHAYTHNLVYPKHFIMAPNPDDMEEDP", "experiment": "Inhibition of PRKD3 assessed as enzyme activity at 1 uM relative to untreated control", "design": "scale not given: the % may be the effect or the level left"}, "[12]": {"molecular_target": "5'-AMP-activated protein kinase catalytic subunit alpha-2 (Homo sapiens) (UniProt P54646)", "experiment": "Inhibition of AMPKalpha2 assessed as enzyme activity at 1 uM relative to untreated control", "design": "scale not given: the % may be the effect or the level left"}, "[13]": {"tested_on": "Mast/stem cell growth factor receptor Kit (Homo sapiens), P10721 [V559D,V654A]", "experiment": "Inhibition of KIT V559D,V654A mutant assessed as enzyme activity at 1 uM relative to untreated control", "design": "scale not given: the % may be the effect or the level left"}, "[14]": {"molecular_target": "Leukocyte tyrosine kinase receptor (Homo sapiens) (UniProt P29376)", "sequence (P29376 whole entry)": "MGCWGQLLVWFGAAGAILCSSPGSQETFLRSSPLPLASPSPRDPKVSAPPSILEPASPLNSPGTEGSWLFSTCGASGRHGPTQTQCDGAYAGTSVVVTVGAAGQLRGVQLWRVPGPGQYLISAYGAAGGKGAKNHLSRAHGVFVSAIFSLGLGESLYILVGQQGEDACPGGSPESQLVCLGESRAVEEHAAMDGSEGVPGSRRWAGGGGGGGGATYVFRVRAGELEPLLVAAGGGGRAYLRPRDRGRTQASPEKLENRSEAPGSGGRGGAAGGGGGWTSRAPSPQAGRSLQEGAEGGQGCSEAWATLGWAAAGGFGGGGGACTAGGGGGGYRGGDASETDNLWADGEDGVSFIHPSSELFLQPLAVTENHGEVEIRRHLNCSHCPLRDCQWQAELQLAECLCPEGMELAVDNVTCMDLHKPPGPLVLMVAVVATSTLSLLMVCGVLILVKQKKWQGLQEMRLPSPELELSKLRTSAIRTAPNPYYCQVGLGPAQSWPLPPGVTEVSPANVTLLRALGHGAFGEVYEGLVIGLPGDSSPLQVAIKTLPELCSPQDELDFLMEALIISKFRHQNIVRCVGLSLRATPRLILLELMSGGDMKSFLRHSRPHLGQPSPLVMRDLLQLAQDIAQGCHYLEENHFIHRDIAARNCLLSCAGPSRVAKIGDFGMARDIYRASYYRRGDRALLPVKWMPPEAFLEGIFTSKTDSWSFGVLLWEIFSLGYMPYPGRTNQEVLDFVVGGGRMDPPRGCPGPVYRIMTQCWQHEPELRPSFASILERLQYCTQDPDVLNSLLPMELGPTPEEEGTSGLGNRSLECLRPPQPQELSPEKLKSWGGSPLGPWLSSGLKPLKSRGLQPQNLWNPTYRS", "experiment": "Inhibition of LTK assessed as enzyme activity at 1 uM relative to untreated control", "design": "scale not given: the % may be the effect or the level left"}, "[15]": {"molecular_target": "Myotonin-protein kinase (Homo sapiens) (UniProt Q09013)", "experiment": "Inhibition of DMPK assessed as enzyme activity at 1 uM relative to untreated control", "design": "scale not given: the % may be the effect or the level left"}, "[16]": {"molecular_target": "Ribosomal protein S6 kinase alpha-4 (Homo sapiens) (UniProt O75676)", "experiment": "Inhibition of RPS6KA4 kinase domain 1 assessed as enzyme activity at 1 uM relative to untreated control", "design": "scale not given: the % may be the effect or the level left"}, "[17]": {"molecular_target": "Cyclin-dependent kinase 8 (Homo sapiens) (UniProt P49336)", "experiment": "Inhibition of CDK8 assessed as enzyme activity at 1 uM relative to untreated control", "design": "scale not given: the % may be the effect or the level left"}, "[18]": {"molecular_target": "Casein kinase I isoform gamma-3 (Homo sapiens) (UniProt Q9Y6M4)", "experiment": "Inhibition of CSNK1G3 assessed as enzyme activity at 1 uM relative to untreated control", "design": "scale not given: the % may be the effect or the level left"}, "[19]": {"molecular_target": "Interleukin-1 receptor-associated kinase 3 (Homo sapiens) (UniProt Q9Y616)", "experiment": "Inhibition of IRAK3 assessed as enzyme activity at 1 uM relative to untreated control", "design": "scale not given: the % may be the effect or the level left"}, "[20]": {"molecular_target": "BMP-2-inducible protein kinase (Homo sapiens) (UniProt Q9NSY1)", "experiment": "Inhibition of BIKE assessed as enzyme activity at 1 uM relative to untreated control", "design": "scale not given: the % may be the effect or the level left"}, "[21]": {"molecular_target": "Tyrosine-protein kinase CSK (Homo sapiens) (UniProt P41240)", "sequence (P41240 2-450 limits assumed)": "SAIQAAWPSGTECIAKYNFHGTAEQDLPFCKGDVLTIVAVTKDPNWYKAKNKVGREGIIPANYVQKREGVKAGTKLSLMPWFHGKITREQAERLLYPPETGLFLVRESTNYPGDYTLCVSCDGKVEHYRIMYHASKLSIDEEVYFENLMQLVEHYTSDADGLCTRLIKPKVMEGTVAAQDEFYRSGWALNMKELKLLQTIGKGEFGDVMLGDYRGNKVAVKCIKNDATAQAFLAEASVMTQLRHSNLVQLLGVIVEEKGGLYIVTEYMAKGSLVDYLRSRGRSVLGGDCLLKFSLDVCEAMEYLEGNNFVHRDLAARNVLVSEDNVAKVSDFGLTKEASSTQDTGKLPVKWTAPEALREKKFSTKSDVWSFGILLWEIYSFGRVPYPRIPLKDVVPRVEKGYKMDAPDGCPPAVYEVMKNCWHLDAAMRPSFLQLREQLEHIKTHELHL", "experiment": "Inhibition of CSK assessed as enzyme activity at 1 uM relative to untreated control", "design": "scale not given: the % may be the effect or the level left"}, "[22]": {"molecular_target": "Tyrosine-protein kinase Tec (Homo sapiens) (UniProt P42680)", "experiment": "Inhibition of TEC assessed as enzyme activity at 1 uM relative to untreated control", "design": "scale not given: the % may be the effect or the level left"}, "[23]": {"molecular_target": "Casein kinase I isoform alpha-like (Homo sapiens) (UniProt Q8N752)", "experiment": "Inhibition of CSNK1A1L assessed as enzyme activity at 1 uM relative to untreated control", "design": "scale not given: the % may be the effect or the level left"}, "[24]": {"molecular_target": "MAP kinase-interacting serine/threonine-protein kinase 2 (Homo sapiens) (UniProt Q9HBH9)", "experiment": "Inhibition of MKNK2 assessed as enzyme activity at 1 uM relative to untreated control", "design": "scale not given: the % may be the effect or the level left"}, "[25]": {"molecular_target": "Ephrin type-A receptor 8 (Homo sapiens) (UniProt P29322)", "experiment": "Inhibition of EPHA8 assessed as enzyme activity at 1 uM relative to untreated control", "design": "scale not given: the % may be the effect or the level left"}, "[26]": {"molecular_target": "Dual specificity tyrosine-phosphorylation-regulated kinase 1B (Homo sapiens) (UniProt Q9Y463)", "experiment": "Inhibition of DYRK1B assessed as enzyme activity at 1 uM relative to untreated control", "design": "scale not given: the % may be the effect or the level left"}, "[27]": {"molecular_target": "Phosphatidylinositol 4-phosphate 5-kinase type-1 alpha (Homo sapiens) (UniProt Q99755)", "experiment": "Inhibition of PIP5K1A assessed as enzyme activity at 1 uM relative to untreated control", "design": "scale not given: the % may be the effect or the level left"}, "[28]": {"molecular_target": "Phosphatidylinositol 4,5-bisphosphate 3-kinase catalytic subunit delta isoform (Homo sapiens) (UniProt O00329)", "experiment": "Inhibition of PIK3CD assessed as enzyme activity at 1 uM relative to untreated control", "design": "scale not given: the % may be the effect or the level left"}, "[29]": {"molecular_target": "Phosphatidylinositol 4,5-bisphosphate 3-kinase catalytic subunit alpha isoform (Homo sapiens) (UniProt P42336)", "experiment": "Inhibition of PIK3CA assessed as enzyme activity at 1 uM relative to untreated control", "design": "scale not given: the % may be the effect or the level left"}, "[30]": {"molecular_target": "Aurora kinase A (Homo sapiens) (UniProt O14965)", "experiment": "Inhibition of AURKA assessed as enzyme activity at 1 uM relative to untreated control", "design": "scale not given: the % may be the effect or the level left"}, "[31]": {"molecular_target": "Serine/threonine-protein kinase PLK1 (Homo sapiens) (UniProt P53350)", "experiment": "Inhibition of PLK1 assessed as enzyme activity at 1 uM relative to untreated control", "design": "scale not given: the % may be the effect or the level left"}, "[32]": {"molecular_target": "Platelet-derived growth factor receptor alpha (Homo sapiens) (UniProt P16234)", "experiment": "Inhibition of PDGFRA assessed as enzyme activity at 1 uM relative to untreated control", "design": "scale not given: the % may be the effect or the level left"}, "[33]": {"molecular_target": "Dual specificity mitogen-activated protein kinase kinase 4 (Homo sapiens) (UniProt P45985)", "experiment": "Inhibition of MEK4 assessed as enzyme activity at 1 uM relative to untreated control", "design": "scale not given: the % may be the effect or the level left"}, "[34]": {"molecular_target": "Ribosomal protein S6 kinase alpha-2 (Homo sapiens) (UniProt Q15349)", "experiment": "Inhibition of RPS6KA2 kinase domain 1 assessed as enzyme activity at 1 uM relative to untreated control", "design": "scale not given: the % may be the effect or the level left"}, "[35]": {"molecular_target": "Macrophage-stimulating protein receptor (Homo sapiens) (UniProt Q04912)", "experiment": "Inhibition of MST1R assessed as enzyme activity at 1 uM relative to untreated control", "design": "scale not given: the % may be the effect or the level left"}, "[36]": {"experiment": "Clearance in Sprague-Dawley rat at 2 mg/kg, iv and 5 mg/kg, po", "format": "ADME, organism-based", "conditions": "in vivo"}, "[37]": {"molecular_target": "Proto-oncogene tyrosine-protein kinase ROS (Homo sapiens) (UniProt P08922)", "sequence (P08922 whole entry)": "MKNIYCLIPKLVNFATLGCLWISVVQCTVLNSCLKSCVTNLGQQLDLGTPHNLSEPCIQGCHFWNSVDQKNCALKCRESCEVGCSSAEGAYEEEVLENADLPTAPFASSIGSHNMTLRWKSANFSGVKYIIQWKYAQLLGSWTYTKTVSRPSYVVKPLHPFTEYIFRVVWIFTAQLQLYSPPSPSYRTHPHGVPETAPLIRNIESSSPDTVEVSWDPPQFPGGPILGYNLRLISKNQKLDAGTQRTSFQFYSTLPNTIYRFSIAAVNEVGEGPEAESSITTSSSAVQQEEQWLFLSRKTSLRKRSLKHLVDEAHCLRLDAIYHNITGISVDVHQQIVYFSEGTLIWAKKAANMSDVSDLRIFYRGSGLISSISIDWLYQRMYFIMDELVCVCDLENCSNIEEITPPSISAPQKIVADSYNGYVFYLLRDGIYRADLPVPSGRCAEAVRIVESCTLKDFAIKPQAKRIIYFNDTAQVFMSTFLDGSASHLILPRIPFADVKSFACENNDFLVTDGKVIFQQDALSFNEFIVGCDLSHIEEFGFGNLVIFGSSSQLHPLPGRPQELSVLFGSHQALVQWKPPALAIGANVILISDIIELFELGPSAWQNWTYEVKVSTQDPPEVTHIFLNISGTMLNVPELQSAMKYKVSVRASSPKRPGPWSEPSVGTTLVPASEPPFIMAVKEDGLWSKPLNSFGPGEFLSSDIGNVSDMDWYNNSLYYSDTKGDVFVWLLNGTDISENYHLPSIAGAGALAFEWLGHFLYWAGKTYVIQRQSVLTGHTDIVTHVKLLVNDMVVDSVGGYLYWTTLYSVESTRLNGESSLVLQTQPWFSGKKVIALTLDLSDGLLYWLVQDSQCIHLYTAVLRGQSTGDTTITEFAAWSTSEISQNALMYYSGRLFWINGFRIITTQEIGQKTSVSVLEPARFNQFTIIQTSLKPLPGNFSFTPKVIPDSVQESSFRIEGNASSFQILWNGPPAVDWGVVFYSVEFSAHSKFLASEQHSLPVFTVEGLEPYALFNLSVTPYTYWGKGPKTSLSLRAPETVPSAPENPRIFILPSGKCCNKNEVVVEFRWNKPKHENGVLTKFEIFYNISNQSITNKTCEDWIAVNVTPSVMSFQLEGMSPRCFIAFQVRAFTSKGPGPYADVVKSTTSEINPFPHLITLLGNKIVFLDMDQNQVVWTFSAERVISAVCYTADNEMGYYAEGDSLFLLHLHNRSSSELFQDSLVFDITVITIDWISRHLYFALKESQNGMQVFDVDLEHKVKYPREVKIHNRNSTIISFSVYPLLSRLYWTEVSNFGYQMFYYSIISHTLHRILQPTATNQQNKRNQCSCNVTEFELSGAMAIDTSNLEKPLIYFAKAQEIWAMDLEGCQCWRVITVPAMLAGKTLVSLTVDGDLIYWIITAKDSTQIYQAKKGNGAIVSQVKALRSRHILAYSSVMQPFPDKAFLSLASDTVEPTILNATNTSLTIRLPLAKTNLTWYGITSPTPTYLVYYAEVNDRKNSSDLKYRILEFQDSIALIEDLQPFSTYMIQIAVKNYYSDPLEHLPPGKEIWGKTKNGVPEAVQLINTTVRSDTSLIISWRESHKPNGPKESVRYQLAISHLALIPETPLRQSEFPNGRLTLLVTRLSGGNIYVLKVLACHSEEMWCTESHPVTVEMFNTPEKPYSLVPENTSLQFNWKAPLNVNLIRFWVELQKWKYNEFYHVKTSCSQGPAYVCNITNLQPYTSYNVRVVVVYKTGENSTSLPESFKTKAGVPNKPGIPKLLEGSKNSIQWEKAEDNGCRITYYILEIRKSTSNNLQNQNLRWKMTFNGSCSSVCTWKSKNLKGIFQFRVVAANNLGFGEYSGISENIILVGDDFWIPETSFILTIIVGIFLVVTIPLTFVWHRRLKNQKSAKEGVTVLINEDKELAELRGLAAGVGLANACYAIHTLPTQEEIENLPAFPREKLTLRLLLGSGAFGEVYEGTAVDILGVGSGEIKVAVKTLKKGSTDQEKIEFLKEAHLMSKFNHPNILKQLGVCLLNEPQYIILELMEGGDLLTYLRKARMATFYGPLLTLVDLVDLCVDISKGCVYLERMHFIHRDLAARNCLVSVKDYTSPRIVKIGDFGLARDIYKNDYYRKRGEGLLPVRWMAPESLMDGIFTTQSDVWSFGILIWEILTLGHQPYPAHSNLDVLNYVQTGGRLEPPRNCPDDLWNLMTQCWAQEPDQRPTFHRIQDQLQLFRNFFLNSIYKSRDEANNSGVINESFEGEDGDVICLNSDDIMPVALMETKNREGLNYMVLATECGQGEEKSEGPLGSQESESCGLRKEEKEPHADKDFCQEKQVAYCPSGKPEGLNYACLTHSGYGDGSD", "experiment": "Inhibition of ROS1 assessed as enzyme activity at 1 uM relative to untreated control", "design": "scale not given: the % may be the effect or the level left"}}, "data": [{"smiles": "Cc1ccc2c(Nc3ccc(Cl)cc3)nccc2c1Nc1ncccc1-c1ncnc2[nH]cnc12.Cl.Cl.Cl", "values": [{"measurement": "Activity", "setting": "[1]", "value": 96, "unit": "%"}, {"measurement": "Activity", "setting": "[2]", "value": 100, "unit": "%"}, {"measurement": "Activity", "setting": "[3]", "value": 80, "unit": "%"}, {"measurement": "Activity", "setting": "[4]", "value": 100, "unit": "%"}, {"measurement": "Activity", "setting": "[5]", "value": 84, "unit": "%"}, {"measurement": "Activity", "setting": "[6]", "value": 90, "unit": "%"}, {"measurement": "Activity", "setting": "[7]", "value": 98, "unit": "%"}, {"measurement": "Activity", "setting": "[8]", "value": 92, "unit": "%"}, {"measurement": "Activity", "setting": "[9]", "value": 99, "unit": "%"}, {"measurement": "Activity", "setting": "[10]", "value": 2.2, "unit": "%"}, {"measurement": "Activity", "setting": "[11]", "value": 100, "unit": "%"}, {"measurement": "Activity", "setting": "[12]", "value": 96, "unit": "%"}, {"measurement": "Activity", "setting": "[13]", "value": 100, "unit": "%"}, {"measurement": "Activity", "setting": "[14]", "value": 20, "unit": "%"}, {"measurement": "Activity", "setting": "[15]", "value": 100, "unit": "%"}, {"measurement": "Activity", "setting": "[16]", "value": 100, "unit": "%"}, {"measurement": "Activity", "setting": "[17]", "value": 100, "unit": "%"}, {"measurement": "Activity", "setting": "[18]", "value": 100, "unit": "%"}, {"measurement": "Activity", "setting": "[19]", "value": 81, "unit": "%"}, {"measurement": "Activity", "setting": "[20]", "value": 70, "unit": "%"}, {"measurement": "Activity", "setting": "[21]", "value": 100, "unit": "%"}, {"measurement": "Activity", "setting": "[22]", "value": 100, "unit": "%"}, {"measurement": "Activity", "setting": "[23]", "value": 95, "unit": "%"}, {"measurement": "Activity", "setting": "[24]", "value": 100, "unit": "%"}, {"measurement": "Activity", "setting": "[25]", "value": 0.45, "unit": "%"}, {"measurement": "Activity", "setting": "[26]", "value": 100, "unit": "%"}, {"measurement": "Activity", "setting": "[27]", "value": 95, "unit": "%"}, {"measurement": "Activity", "setting": "[28]", "value": 100, "unit": "%"}, {"measurement": "Activity", "setting": "[29]", "value": 100, "unit": "%"}, {"measurement": "Activity", "setting": "[30]", "value": 100, "unit": "%"}, {"measurement": "Activity", "setting": "[31]", "value": 100, "unit": "%"}, {"measurement": "Activity", "setting": "[32]", "value": 88, "unit": "%"}, {"measurement": "Activity", "setting": "[33]", "value": 93, "unit": "%"}, {"measurement": "Activity", "setting": "[34]", "value": 100, "unit": "%"}, {"measurement": "Activity", "setting": "[35]", "value": 97, "unit": "%"}, {"measurement": "clearance", "setting": "[36]", "value": 6.67, "unit": "mL/min/kg"}, {"measurement": "Activity", "setting": "[37]", "value": 72, "unit": "%"}]}]}
